Reference: BindingDB's records for doi:10.1002/(SICI)1098-2396(199702)25:2 (University of Toronto, 1997)

Target: D(2) dopamine receptor (Mus musculus, UniProt P61168)
Sequence (P61168 whole entry): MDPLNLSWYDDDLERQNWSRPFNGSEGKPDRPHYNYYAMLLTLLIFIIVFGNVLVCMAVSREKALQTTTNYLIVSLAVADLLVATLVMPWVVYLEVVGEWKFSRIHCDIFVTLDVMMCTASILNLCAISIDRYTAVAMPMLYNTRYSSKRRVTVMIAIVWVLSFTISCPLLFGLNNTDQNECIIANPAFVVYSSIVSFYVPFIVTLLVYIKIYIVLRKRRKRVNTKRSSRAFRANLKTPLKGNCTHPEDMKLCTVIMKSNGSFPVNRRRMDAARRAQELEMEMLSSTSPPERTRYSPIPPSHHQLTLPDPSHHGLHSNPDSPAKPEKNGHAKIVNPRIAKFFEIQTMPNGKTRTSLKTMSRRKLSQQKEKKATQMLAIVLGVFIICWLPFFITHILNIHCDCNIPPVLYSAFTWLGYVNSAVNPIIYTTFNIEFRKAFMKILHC

Row | Ki | SMILES
1 | 1.06 µM | CCN1CCC[C@@H]1CNC(=O)c1cc(S(N)(=O)=O)ccc1OC [Sulpiride-R]
2 | 1.47 µM | CCN1CCC[C@H]1CNC(=O)c1cc(S(N)(=O)=O)ccc1OC [Sulpiride-S]
